This note sets out measurements from patent US4977173A, “Aminomethyl oxooxazolidinyl ethenylbenzene derivatives useful as antibacterial agents” (E. I. Du Pont de Nemours and Company, priority 1989, dated 1990).

In brackets after ≈: the same amount, converted by molar mass. Read-outs that look alike come from different tables or passages of the source.

The subject of assay [1] is Staphylococcus aureus. Kind of assay: In vivo activity against Staphylococcus aureus in an acute lethal mouse model. Particulars: mice infected intraperitoneally, dosed one and four hours post-infection, survival on seventh day. The protocol:
Determinations of in vivo efficacy are performed by inoculating mice intraperitoneally with cultures of the infecting organism diluted to produce 100% mortality in control animals within twenty-four hours. The culture of S. aureus used to infect the animals was diluted to the required bacterial density using 5% aqueous hog gastric mucin. The compounds are dissolved or suspended in 0.25% aqueous Methocel® (Methocel®: Hydroxypropyl Methylcellulose, E15 Premium, Dow Chemical Company) for oral administration or sterile distilled water containing 5% dimethylsulfoxide (Fisher Scientific Company, Fairlawn, N.J.) for subcutaneous administration. The mice are dosed at one hour and at four hours post-infection. Mortality is recorded daily until test termination seven days post infection. The number of survivors in each treatment group on the seventh day after infection is used in the calculation of the ED50, the dose of compound that protects 50% of the mice (Litchfield, J. T. and Wildoxon. A simplified method for evaluating dose-effect experiments. J. Pharmacol Exp. Ther., 96:99-113, 1949).

For assay [2], the system named is Escherichia coli. Kind of assay: In vitro broth microdilution minimal inhibitory concentration (24-hour MIC), Escherichia coli. To be noted: Mueller-Hinton broth, standard microdilution; for MIC: read-out: Minimum Inhibitory Concentration. In kind it is cell-based. The text has this: (§1) As shown in Table VII compounds of formula I exert an in vitro antibacterial effect.
In general terms: In broth dilution the organism is exposed to a series of concentrations in liquid medium.

The test system of assay [3] is Staphylococcus aureus. As to the kind of experiment: In vitro broth microdilution minimal inhibitory concentration (24-hour MIC), Staphylococcus aureus. In kind it is cell-based. Particulars: Mueller-Hinton broth, standard microdilution; for MIC: read-out: Minimum Inhibitory Concentration.
Description: as §1

[4] abbreviates: Staphylococcus aureus, 168 h, Oral Administration, read-out: ED50.
Setting [5] is: Staphylococcus aureus, sc, 168 h, Subcutaneous Administration, read-out: ED50.
Setting [6] is: Subcutaneous Administration, 10080 min.

For the compound `CC(=O)NCC1CN(c2ccc(/C(=C/C#N)c3ccccc3)cc2)C(=O)O1` (racemic) [Example 5], the 50% effective dose (ED50) in assay [1] (setting [4]) and in assay [1] (setting [5]) was over 90 mg/kg throughout. In addition, the MIC was over 128 µg/mL in assay [2] and 32 µg/mL (≈ 88.5 µM) in assay [3].

Regarding `CC(=O)NC[C@H]1CN(c2ccc(/C(C)=C/C#N)cc2)C(=O)O1` [Example 1, (l)-N-[3-[4-(E-1-Methyl-2-cyanoethenyl)phenyl]-2-oxooxazolidin-5-ylmethyl]acetamide], the results for the ED50 in assay [1] (setting [4]) and in assay [1] (setting [5]) were 1.3 mg/kg and 0.8 mg/kg, respectively. The values for the MIC in assay [2] and in assay [3] were over 128 µg/mL and 1 µg/mL (≈ 3.34 µM), respectively.

Regarding `CC(=O)NC[C@H]1CN(c2ccc(/C=C/C#N)cc2)C(=O)O1` [Example 2, (l)-N-[3-[4-(E-2-Cyanoethenyl)phenyl]-2-oxooxazolidin-5-ylmethyl]acetamide], the figures for the ED50 in assay [1] (setting [4]) and in assay [1] (setting [5]) were 3.5 mg/kg and 2.8 mg/kg, respectively. Besides, the figures for the MIC in assay [2] and in assay [3] were over 128 µg/mL and 4 µg/mL (≈ 14 µM), respectively.

Turning to `CC(=O)NC[C@H]1CN(c2ccc(/C(C)=C/C#N)c(C)c2)C(=O)O1` [Example 3], the median effective dose (ED50) was found to be 6.4 mg/kg in assay [1] (setting [4]) and 5.1 mg/kg in assay [1] (setting [5]). In addition, the MIC is over 128 µg/mL in assay [2] and 2 µg/mL (≈ 6.38 µM) in assay [3].

For the compound `CC(=O)NC[C@H]1CN(c2ccc(/C(=C/C#N)c3ccc(F)cc3)cc2)C(=O)O1` [Example 6], the MIC in assay [2] and in assay [3] was over 128 µg/mL throughout.

Consider `CC/C(=C\C#N)c1ccc(N2C[C@H](CNC(C)=O)OC2=O)cc1` [Example 7], for which the ED50 was found to be 3.1 mg/kg in assay [1] (setting [4]) and 2.1 mg/kg in assay [1] (setting [5]). The values for the MIC in assay [2] and in assay [3] were over 128 µg/mL and 1 µg/mL (≈ 3.19 µM), respectively.

With `CCC/C(=C\C#N)c1ccc(N2C[C@H](CNC(C)=O)OC2=O)cc1` [Example 8], the ED50 in assay [1] (setting [4]) and in assay [1] (setting [5]) was over 90 mg/kg in each case. For the same compound, the MIC in assay [2] was over 128 µg/mL; in assay [3] it was 2 µg/mL (≈ 6.11 µM).

As to `CC(=O)NC[C@H]1CN(c2ccc(/C(C)=C(\C)C#N)cc2)C(=O)O1` [Example 9], the 50% effective dose (ED50) in assay [1] (setting [4]) was 3.8 mg/kg; in assay [1] (setting [5]), 2.5 mg/kg. Moreover, the MIC in assay [2] was over 128 µg/mL; in assay [3], 2 µg/mL (≈ 6.38 µM).

Turning to `CC(=O)NC[C@H]1CN(c2ccc(/C(C)=C(/C)C#N)cc2)C(=O)O1` [Example 11], the figures for the MIC in assay [2] and in assay [3] were over 128 µg/mL and 8 µg/mL (≈ 25.5 µM), respectively.

Take `CC(=O)NC[C@H]1CN(c2ccc(/C=C(\C)C#N)cc2)C(=O)O1` [Example 12]: the 50% effective dose (ED50) in assay [1] (setting [4]) stood at 2.9 mg/kg; in assay [1] (setting [5]) it was 1.9 mg/kg. Further, the MIC is over 128 µg/mL in assay [2] and 1 µg/mL (≈ 3.34 µM) in assay [3].

Take `CC(=O)NC[C@H]1CN(c2ccc(/C(C)=C\C#N)cc2)C(=O)O1` [Example 13]: the MIC is over 128 µg/mL in assay [2] and 8 µg/mL (≈ 26.7 µM) in assay [3].

With `CC(=O)NC[C@H]1CN(c2ccc(/C=C/[N+](=O)[O-])cc2)C(=O)O1` [Example 19, (l)-N-[3-[4-(E-Nitroethenyl)phenyl]-2-oxooxazolidin-5-ylmethyl]acetamide], the ED50 in assay [1] (setting [4]) and in assay [1] (setting [5]) was over 90 mg/kg each time. Further, the MIC in assay [2] was over 128 µg/mL; in assay [3], 8 µg/mL (≈ 26.2 µM).

For the compound `CC(=O)NC[C@H]1CN(c2ccc(/C=C(\C)[N+](=O)[O-])cc2)C(=O)O1` [Example 20, (l)-N-[3-[4-(E-2-Nitro-2-methylethenyl)phenyl]-2-oxooxazolidin-5-ylmethyl]acetamide], the ED50 turned out to be 14.1 mg/kg in assay [1] (setting [4]) and 9.1 mg/kg in assay [1] (setting [5]). Besides, the MIC is over 128 µg/mL in assay [2] and 0.1 µg/mL (≈ 0.313 µM) in assay [3].

Turning to `CSC(C#N)=Cc1ccc(N2CC(CNC(C)=O)OC2=O)cc1` (centres unmarked) [Example 21, (l)-N-[3-(4-(2-Cyano-2-methylsulfenylethenyl)phenyl]-2-oxooxazolidin-5-ylmethyl]acetamide], the ED50 in assay [1] (Oral Administration, 10080 min) was over 90 mg/kg; in assay [1] (setting [6]) it was 11.8 mg/kg. The results for the “Minimum Inhibitory Concentration” value in assay [2] and in assay [3] were over 128 µg/mL and 4 µg/mL, respectively.

In the case of `CCOC(=O)/C=C/c1ccc(N2C[C@H](CNC(C)=O)OC2=O)cc1` [Example 22, (l)-N-[3-[4-(E-2-Carboethoxyethenyl)-phenyl]-2-oxooxazolidin-5-ylmethyl]acetamide], the 50% effective dose (ED50) in assay [1] (setting [4]) and in assay [1] (setting [5]) was over 90 mg/kg throughout. For the same compound, the MIC in assay [2] was over 128 µg/mL; in assay [3] it was 8 µg/mL (≈ 24.1 µM).

For the compound `CC(=O)NC[C@H]1CN(c2ccc(/C(C)=C/C(N)=O)cc2)C(=O)O1` [Example 23, (l)-N-[3-[4-(E-1-Methyl-2-carbamidoethenyl)phenyl]-2-oxooxazolidin-5-ylmethyl]acetamide], the ED50 in assay [1] (setting [4]) is 26.4 mg/kg; in assay [1] (setting [5]), 36.2 mg/kg. Further, the MIC in assay [2] is over 128 µg/mL; in assay [3] it was 4 µg/mL (≈ 12.6 µM).

Consider `CSC=Cc1ccc(N2CC(CNC(C)=O)OC2=O)cc1` (centres unmarked) [Example 24, (l)-N-[3-[4-(2-Methylsulfenylethenyl)-phenyl]-2-oxooxazolidin-5-ylmethyl]acetamide], for which the median effective dose (ED50) in assay [1] (Oral Administration, 10080 min) is recorded as 33.3 mg/kg; in assay [1] (setting [6]) it was 14.6 mg/kg. The “Minimum Inhibitory Concentration” value is over 128 µg/mL in assay [2] and 8 µg/mL in assay [3].

For the compound `CC(=O)NC[C@H]1CN(c2ccc(/C=C/C=O)cc2)C(=O)O1` [Example 25, (l)-N-[3-[4-(E-2-Formylethenyl)phenyl]-2-oxooxazolidin-5-ylmethyl]acetamide], the 50% effective dose (ED50) in assay [1] (setting [4]) and in assay [1] (setting [5]) was over 80 mg/kg in each case. Besides, the MIC in assay [2] is over 128 µg/mL; in assay [3] it was 0.5 µg/mL (≈ 1.73 µM).

Consider `CC(=O)NC[C@H]1CN(c2ccc(C=C(C#N)C#N)cc2)C(=O)O1` [Example 26], for which the ED50 in assay [1] (setting [4]) and in assay [1] (setting [5]) was over 90 mg/kg each time. Further, the MIC was over 128 µg/mL in assay [2] and 16 µg/mL (≈ 51.6 µM) in assay [3].

For the compound `CC(=O)NC[C@H]1CN(c2ccc(C=C(C(C)=O)C(C)=O)cc2)C(=O)O1` [Example 28], the ED50 in assay [1] (setting [4]) and in assay [1] (setting [5]) was over 90 mg/kg throughout. For the same compound, the results for the MIC in assay [2] and in assay [3] were over 128 µg/mL and 16 µg/mL (≈ 46.5 µM), respectively.

`CC/C(=C\c1ccc(N2C[C@H](CNC(C)=O)OC2=O)cc1)[N+](=O)[O-]` [Example 29]: the ED50 in assay [1] (setting [4]) and in assay [1] (setting [5]) was over 90 mg/kg throughout. For the same compound, the values for the MIC in assay [2] and in assay [3] were over 128 µg/mL and 1 µg/mL (≈ 3 µM), respectively.

Consider `CCC/C(=C\c1ccc(N2C[C@H](CNC(C)=O)OC2=O)cc1)[N+](=O)[O-]` [Example 30], for which the 50% effective dose (ED50) in assay [1] (setting [4]) and in assay [1] (setting [5]) was over 90 mg/kg in each case. Further, the MIC in assay [2] was over 128 µg/mL; in assay [3] it was 4 µg/mL (≈ 11.5 µM).

`COC(=O)/C=C(\C)c1ccc(N2C[C@H](CNC(C)=O)OC2=O)cc1` [Example 58, (l)-N-[3-[4-(E-1-Methyl-2-carbomethoxyethenyl)phenyl]-2-oxooxazolidin-5-ylmethyl]acetamide]: in assay [1] (setting [5]), the ED50 stood at 46.2 mg/kg. In addition, the MIC in assay [2] is over 128 µg/mL; in assay [3], 2 µg/mL (≈ 6.02 µM).

Turning to `COC(=O)/C=C/c1ccc(N2C[C@H](CNC(C)=O)OC2=O)cc1` [Example 59], the ED50 in assay [1] (setting [5]) was over 90 mg/kg. For the same compound, the MIC is over 128 µg/mL in assay [2] and 8 µg/mL (≈ 25.1 µM) in assay [3].

Consider `CC(=O)/C=C/c1ccc(N2C[C@H](CNC(C)=O)OC2=O)cc1` [Example 60], for which the ED50 in assay [1] (setting [5]) was 51.9 mg/kg. Also, the MIC in assay [2] was over 128 µg/mL; in assay [3], 4 µg/mL (≈ 13.2 µM).

For `CC(=O)NC[C@H]1CN(c2ccc(/C=C/C(=O)N(C)C)cc2)C(=O)O1` [Example 61], the ED50 in assay [1] (setting [5]) worked out at 39.5 mg/kg. In addition, the MIC in assay [2] was over 128 µg/mL; in assay [3], 32 µg/mL (≈ 96.6 µM).

In the case of `CC(=O)NC[C@H]1CN(c2ccc(/C=C/C(N)=O)cc2)C(=O)O1` [Example 62], in assay [1] (setting [5]), the ED50 is 20.4 mg/kg. Further, the figures for the MIC in assay [2] and in assay [3] were over 128 µg/mL and 32 µg/mL (≈ 105 µM), respectively.

In the case of `CC(=O)NC[C@H]1CN(c2ccc(C3=CC(=O)CCC3)cc2)C(=O)O1` [Example 68], the 50% effective dose (ED50) worked out at 2.4 mg/kg in assay [1] (setting [4]) and 1.7 mg/kg in assay [1] (setting [5]). In addition, the MIC in assay [2] was over 128 µg/mL; in assay [3], 0.5 µg/mL (≈ 1.52 µM).

As usually defined, the ED50 is the dose at which the effect has come halfway, by size or by number of responders.
